According to patent US6911435B1 (Can-Fite Biopharma Ltd., priority 1997, dated 2005):

Key:
K562 cells = assay: K562 cell proliferation with adenosine and theophylline; assay type: cell-based, human
Experimental: (§1) During the last 6 hours of incubation, each well was pulsed with 1 μCi[^3H]-Thymidine. The cells were harvested and the [^3H]-Thymidine uptake was determined in an LKB liquid scintillation counter (LKB, Piscataway, N.J., USA).
Culture conditions were identical to those described above.

white blood cells [1] = assay: Example 2 in vivo: white blood cell count after adenosine and/or cyclophosphamide; design: species or system C57BL6/J mice; settings: i.p.
Experimental: (§2) On day 6 the mice were injected intraperitoneally with 1 ml saline. • 4. chemotherapy group: daily injection of 1 ml saline for 5 consecutive days. On day 6 the mice were injected intraperitoneally with cyclophosphamide.
[…] Proliferation capacity of bone marrow: bone marrow was aspirated from the femur and pooled for each tested group. The cells were separated, counted and the proliferative capacity was evaluated by the [^3H]-Thymidine incorporation assay as described above.

blood cells = assay: Example 3 in vivo: blood cell parameters after adenosine and/or chemotherapy; settings: for white blood cell count versus control: Example 3, in words
Experimental: 40 C57BL6/J were divided into 4 groups, each of which was treated (by intraperitoneal injection) according to one of the following protocols: • 1. Control group: 6 days of treatment by daily injection of 1 ml saline. • 2. Chemotherapy group: daily injection of 1 ml saline for 5 consecutive days. On day 6 the mice were injected intraperitoneally with cyclophosphamide. • 3. […] On day 6 the mice were injected intraperitoneally with 1 ml saline. • 4.
The following parameters were evaluated for each group: • i. Red blood cell (RBC) count. • ii. Hemoglobin (HGB) level. • iii. White blood cell count. • iv. Proportion of the three major groups of white blood cells: Lymphocytes (LYM), Monocytes (MID) and Granulocytes (GRAN). Results

white blood cells [2] = assay: Example 5 in vivo: white blood cell count and percentage of granulocytes; design: species or system C57BL6/J mice
Experimental: 50 C57BL6/J mice were divided into 5 groups of 10 mice each, which were treated by intraperitoneal injection with one of the following treatments: • 1. Control group: 6 days of treatment by daily injection of 1 ml saline. • 2. […] Chemotherapy group: daily injection of 1 ml saline for 5 consecutive days. On day 6 the mice were injected intraperitoneally with cyclophosphamide. • 5. […] On day 6 the mice were injected intraperitoneally with cyclophosphamide. Results

bone marrow cells [3] = assay: Example 2: proliferation capacity of bone marrow from treated mice ([3H]-Thymidine); assay type: in vivo, C57BL6/J mice; settings: after 24 hours
Experimental: as §1, §2
Five mice of each group were sacrificed […] and 96 hrs following the treatments and two parameters were evaluated: • 1. complete blood cell count. • 2. Proliferation capacity of bone marrow: bone marrow was aspirated from the femur and pooled for each tested group. The cells were separated, counted and the proliferative capacity was evaluated by the [^3H]-Thymidine incorporation assay as described above.

B-16-F10 melanoma cells = assay: Example 4 in vivo: B-16-F10 melanoma lung tumor foci; design: species or system C57BL6/J mice; settings: for No. of foci (melanoma tumor foci in the lung): 18 days, adenosine 1 ml 5 mM daily i.p.
bone marrow cells [4] = assay: Bone marrow cell proliferation in vitro (adenosine dose response, adenosine receptor antagonists); assay type: cell-based, C57BL/6J mice; settings: FIG. 3
Experimental: as §1

NK cells = assay: NK activity of splenocytes from adenosine treated mice, Yac targets; assay type: in vivo, ICR mice; settings: 5 consecutive days 10 μM adenosine; two effector:target ratios; FIG. 8
IL-12 = IL-12 production by peripheral blood mononuclear cells; assay type: cell-based, human; settings: 4 μM adenosine
Experimental: Mononuclear cells (MNC) were fractionated from heparinized blood of 10 healthy volunteers using Ficoll-Hypaque gradient. […] At the end of the incubation period the supernatant was collected, centrifuged and filtered through 0.22μ sterile filter and kept at −70° C. until assayed. The level of IL-12 in the supernatants was analyzed using a commercial kit of R&D System.

Nb2-11C lymphoma cells = assay: Cell count assay, proliferation of Nb2-11C lymphoma cells; assay type: cell-based, rat; settings: adenosine 1-20 μM, 48 hours
Experimental: The Nb2-11C cells were synchronized in the GO/Gl phase prior to cultivation with the CM by transferring the cells to horse serum (Biological Industries, Beit Haemek, Israel) supplemented medium for overnight incubation. […] Cell proliferation was initiated by the addition of Human Growth Hormone (Biotechnology General, Rehovot, Israel) to a final concentration of 2 ng/ml. The cultures were incubated at 37° C. at 5% CO2 and counted in Coulter Counter 48 hours later.

[5] = test system: leukemia, lymphoma and the solid tumor cell lines; assay: [3H]-Thymidine incorporation assay, tumor cell lines; assay type: cell-based, human, murine; settings: adenosine 4 μM, FIG. 2
Text: Tumor cell lines from human (K562 myeloid leukemia, Tib-180 erythroleukemia, LNCaP prostate carcinoma and MDA-MB468 breast adenocarcinoma), and murine (Yac lymphoma, B-16 melanoma) were used and were purchased from the American Type Tissue Culture Collection, Rockville. Nb2 11c rat lymphoma cells (Pines et al.^(19), were also used. The cells were routinely maintained in RPM medium containing 10% fetal calf serum. Twice a week the cells were transferred to a freshly prepared medium.
as §1

[6] = test system: normal cells (bone marrow cells, fibroblasts, L-8 myoblast); assay: [3H]-Thymidine incorporation assay, normal cells; assay type: cell-based, mice, rat; settings: adenosine 4 μM, FIG. 2
Experimental: As a control for tumor proliferating cells, two normal proliferating cell types were used i.e., bone marrow cells derived from the femur of C57BL/6J mice; fibroblasts derived from primary cultures of newborn rat skeletal muscle cells. The cells were prepared as previously, (Djaldetti, M., Sredni, B., Zigelman, R., Verber, M., and Fishman, P. Muscle cells produce a low molecular weight factor with anti-cancer activity. Clin. Exp. Matastasis, 14:189-196, 1996). Also used was the L-8 myoblast rat cell line which was purchased from the ATCC.
as §1

[7] = test system: human peripheral blood NK cells; assay: NK activity of peripheral blood cells, 51Cr-release assay, K562 targets; assay type: cell-based; settings: 4 μM adenosine, 18 hours preincubation
Experimental: K562 cells were used as the targets (T) and were labeled with 100 μCi of Na2[^51Cr]O4 at 37° for 1 h. After extensive washing to remove the excess Cr, cells (1×10^4) were resuspended and mixed with the effector cells at the E:T ratio of […] in a volume of 200 μl using triplicate assays. After 4 h of incubation at 37° C. in 5% CO2, plates were centrifuged, and the supernatants were counted in a gamma counter (LKB). […] Spontaneous release was below 8% of the maximal release throughout this experiment.

[8] = adenosine where given 10 μM, cyclophosphamide where given on day 6
[9] = 5 μM adenosine group, daily i.p. 6 days

| Structure (SMILES) | WBC count (white blood cells [1]; 24 hours after treatment) | WBC count (white blood cells [1]; 96 hours after treatment) | white blood cell count versus control (blood cells) | % GRAN (granulocytes, % out of the number of white blood cells) (blood cells; mean±S.E.) [%] | % LYM (lymphocytes, % out of the number of white blood cells) (blood cells; mean±S.E.) [%] | % MID (monocytes, % out of the number of white blood cells) (blood cells; mean±S.E.) [%] | GRAN (white blood cells [2]; [8]) [%] | WBC (white blood cells [2]; [8]) [count × 10^3/I] | Bone Marrow Cell Proliferation (bone marrow cells [3]) [CPM] | No. of foci (melanoma tumor foci in the lung) (B-16-F10 melanoma cells) | further results |
| --- | --- | --- | --- | --- | --- | --- | --- | --- | --- | --- | --- |
| Cn1c(=O)c2[nH]cnc2n(C)c1=O [theophylline, Theophylline] |  |  |  |  |  |  |  |  |  |  | effect on the inhibitory effect of adenosine on tumor cell proliferation (K562 cells; theophylline 0.1 μM with 4 μM adenosine, K562): this inhibitory effect was neutralized |
| O=P1(N(CCCl)CCCl)NCCCO1 (centres unmarked) [cyclophosphamide] | 3.8 ± 0.18 × 10^6/ml | 3.62 ± 0.17 × 10^6/ml | caused a reduction in the amount of white blood cells | 10.28 ± 1.59 | 81.94 ± 2.49 | 7.78 ± 0.92 | 7.70 | 5.00 | 434.5 ± 52.2 | 4.16 ± 1.42 | HGB (hemoglobin count) (blood cells; mean±S.E.): 14.88 ± 8.32 gram/100 ml |
| Nc1ncnc2c1ncn2[C@@H]1O[C@H](CO)[C@@H](O)[C@H]1O [adenosine] | 9.37 ± 0.26 × 10^6/ml | 6.8 ± 0.73 × 10^6/ml | boosted to levels above control | 21.03 ± 2.75 | 65.57 ± 3.35 | 13.4 ± 0.70 | 10.76 | 7.56 | 1480.0 ± 68.5 | 6.11 ± 2.74 | concentration of peak stimulatory activity on bone marrow cell proliferation (bone marrow cells [4]): about 10 μM; NK activity of splenocytes, lysis of Yac target cells (NK cells): more potent in lysing the Yac target cells; K562 tumor cell proliferation (K562 cells; adenosine 4 μM, FIG. 4): inhibited tumor cell proliferation; production of IL-12 in the presence of SAC mitogen (IL-12; 18 hours, FIG. 7): stimulated the production of IL-12; stimulation of IL-12 production without mitogen (IL-12; no mitogen): 19%; HGB (hemoglobin count) (blood cells; mouse, in vivo): 14.03 ± 0.20 gram/100 ml; growth of Nb2-11c rat lymphoma cells (cell count) (Nb2-11C lymphoma cells): markedly inhibited; proliferation of leukemia, lymphoma and solid tumor cell lines [5]: induced proliferation inhibition; GRAN (white blood cells [2]; [9]): 9.00%; WBC (white blood cells [2]; [9]): 9.50 count × 10^3/I; proliferation of the three tested normal cells [6]: stimulated the proliferation; tumor load (tumor foci in the lungs) (B-16-F10 melanoma cells; oral 0.5 ml of 10 μM adenosine, about 54 μg/kg, with chemotherapeutic drug, FIG. 6): synergized with the chemotherapeutic drug to reduce the tumor load; stimulation of NK activity [7]: 32% |
